Assay results published in patent US8785462B2, “5-hydroxypyrimidine-4-carboxamide derivative” (Daiichi Sankyo Company, Limited, priority 2009, dated 2014).

The compounds below were run on human liver cancer-derived cell line Hep3B (assay: In vitro erythropoietin (EPO) induction activity in Hep3B cells (human EPO ELISA of culture supernatant)). Conditions: test compound 12.5 μM, Hep3B cells cultured 24 hours at 37° C., multiple of the EPO concentration in the control (0.5% DMSO = 1).
Format: cell-based
Procedure: In vitro erythropoietin (EPO) induction activity of test compounds was evaluated using human liver cancer-derived cell line Hep3B (ATCC, Manassas, Va.). Hep3B cells were cultured overnight at 37° C. in Dulbecco's modified Eagle's medium (DMEM) in the presence of 10% fetal bovine serum (FBS) (24-well plate, 1.0×10^5 cells/well). After replacing with fresh DMEM (+10% FBS) containing a test compound dissolved in 0.5% dimethyl sulfoxide (DMSO) (prepared to a concentration of 12.5 μM) or a solvent control (0.5% DMSO), the cells were cultured for 24 hours at 37° C. After recovering the culture supernatant, EPO concentration in the culture supernatant was quantified using a human EPO ELISA kit (StemCell Technologies).
The EPO concentration in the case of using a compound of each example as a test compound was expressed as a multiple of the EPO concentration in the control.

| Structure (SMILES) | fold induction at 12.5 µM |
| --- | --- |
| CCC(O)Cc1ccc(-c2ccc(N3CCC(Cc4nc(C)c(O)c(C(=O)NCC(=O)O)n4)CC3)cc2)cc1 (stereo not drawn) [Example 27, ({[5-Hydroxy-2-{(1-[4′-(2-hydroxybutyl)biphenyl-4-yl]piperidin-4-yl}methyl)-6-methylpyrimidin-4-yl]carbonyl}amino)acetic acid] | 30 |
| Cc1nc(CC2CCN(c3ccc(-c4ccc(CO)cc4)c(F)c3)CC2)nc(C(=O)NCC(=O)O)c1O [Example 38, ({[2-({1-[2-Fluoro-4′-(hydroxymethyl)biphenyl-4-yl]piperidin-4-yl}methyl)-5-hydroxy-6-methylpyrimidin-4-yl]carbonyl}amino)acetic acid] | 24 |
| Cc1nc(CC2CCN(c3ccc(-c4ccc(CC(=O)N(C)C)cc4)cc3)CC2)nc(C(=O)NCC(=O)O)c1O [Example 9, [({2-[(1-{4′-[2-(Dimethylamino)-2-oxoethyl]biphenyl-4-yl}piperidin-4-yl)methyl]-5-hydroxy-6-methylpyrimidin-4-yl}carbonyl)amino]acetic acid] | 36 |
